Where two headings read alike, the source gives them in different places. Starred links: 1 amine or outer side, 2 acyl side, 3 side chain; linkers in the order of their positions; H or OH if unused. Non-standard residues stand in square brackets, D forms with d. Residues, ends and D or L forms follow the SMILES beside them. 2Furoyl(5-aminomethyl) = O=C(c1ccc(CN[*:1])o1)[*:2]; X2 = O=C([C@@H]1CC[C@H](CN[*:1])O1)[*:2]; X1 = O=C(C1CCC(CN[*:1])O1)[*:2]
Columns and labels:
[1] = test system: PA1 (human ovary); experiment: MTT cytotoxicity assay, PA1 cells; format: cell-based; conditions: 48 hours
Source text: (§1) The following cell lines were used.

[2] = test system: PTC (colon); experiment: MTT cytotoxicity assay, PTC cells; format: cell-based, human; conditions: human, 48 hours
Source text: as §1

[3] = test system: KB (oral); experiment: MTT cytotoxicity assay, KB cells; format: cell-based, human; conditions: human, 48 hours
Source text: as §1

[4] = test system: ECV-304 (endothelial); conditions: ECV-304 cells, 48 hours, NA = Not Active
Source text: Although sterile phosphate buffered saline was used to prepare each stock solution for the testing described in the following example, other diluents may be used such as buffered saline, isotonic NaCl, Ringer's solution, water, distilled water, polyethylene glycol (neat or in water), Tween in water, dimethylsulfoxide up to 50% in water, propylene glycol (neat or in water), phosphate buffered saline, balanced salt solution, glycerol, and other conventional fluids that are suitable for parentral administration. To obtain a pH in the range of approximately 3.5 to 7.0, for each stock solution, the pH can be adjusted by using 1N HCl for lowering the pH or 1N NaOH for raising the pH, although other buffers such as citrate buffer, phosphate buffer and the like or other conventional agents for adjusting the pH can be used.
The MTT assay is based on the principle of uptake of MTT [3-[4,5-dimethylthiazol-2-yl]-2,5-diphenyl tetrazolium bromide], a tetrazolium salt, by the metabolically active cells where it is metabolized by active mitochondria into a blue colored formazan product which can be read spectrophotometrically. […] The formazan crystals formed inside the cells were dissolved with a detergent comprising of 10% Sodium dodecyl sulfate and 0.01 N HCl and optical density read on a multi-scan ELISA reader. The optical density was directly proportional to the number of proliferating and metabolically active cells. The following cell lines were used. PA1(human ovary), PTC (colon), HeP-2 (larynx), MiaPaCa.2 (human pancreas), KB (oral), ECV-304 (endothelial) and HeP-G2 (liver).

[5] = test system: MiaPaCa.2 (human pancreas); experiment: MTT cytotoxicity assay, MiaPaCa.2 cells; format: cell-based; conditions: 48 hours
Source text: as §1

[6] = test system: HeP-2 (larynx); experiment: MTT cytotoxicity assay, HeP-2 cells; format: cell-based, human; conditions: human, 48 hours
Source text: as §1

[7] = test system: HeP-G2 (liver); experiment: MTT cytotoxicity assay, HeP-G2 cells; format: cell-based, human; conditions: human, 48 hours
Source text: as §1

CSCC[C@H](NC(=O)[C@@H](N)CC(C)C)C(=O)NCc1ccc(C(=O)N[C@@H](Cc2ccc(O)cc2)C(=O)N[C@@H](CC(C)C)C(=O)N[C@@H](CCCCN)C(=O)O)o1 [SEQ ID NO: 18, Leu-Met-Saa1-Tyr-Leu-Lys] (H-LM[2Furoyl(5-aminomethyl)]YLK-OH)
Percent Cytotoxicity ([1]; human, 1 nM): 18.3 ± 1.8%
Percent Cytotoxicity ([1]; human, 10 nM): 22.8 ± 2.9%
Percent Cytotoxicity ([1]; human, 100 nM): 21.8 ± 2.1%
Percent Cytotoxicity ([1]; human, 1 μM): 20.3 ± 2.6%
Percent Cytotoxicity ([2]; 1 nM): 19.0 ± 1.6%
Percent Cytotoxicity ([2]; 10 nM): 28.4 ± 1.0%
Percent Cytotoxicity ([2]; 100 nM): 23.9 ± 2.9%
Percent Cytotoxicity ([2]; 1 μM): 21.7 ± 1.5%
Percent Cytotoxicity ([3]; 1 nM): 15.9 ± 1.0%
Percent Cytotoxicity ([3]; 10 nM): 12.0 ± 0.3%
Percent Cytotoxicity ([3]; 100 nM): 14.0 ± 1.0%
Percent Cytotoxicity ([3]; 1 μM): 9.3 ± 0.4%
Percent Cytotoxicity ([4]; peptide 1 nM): 11.0 ± 0.6%
Percent Cytotoxicity ([5]; human, 1 nM): 24.8 ± 2.0%
Percent Cytotoxicity ([5]; human, 10 nM): 21.0 ± 2.6%
Percent Cytotoxicity ([5]; human, 100 nM): 18.5 ± 0.6%
Percent Cytotoxicity ([5]; human, 1 μM): 15.0 ± 0.6%
Percent Cytotoxicity ([6]; 1 nM): 47.0 ± 4.8%
Percent Cytotoxicity ([6]; 10 nM): 38.3 ± 2.0%
Percent Cytotoxicity ([6]; 100 nM): 35.8 ± 2.4%
Percent Cytotoxicity ([6]; 1 μM): 32.9 ± 2.6%

CSCC[C@H](NC(=O)[C@@H](N)CC(C)C)C(=O)N[C@@H](Cc1ccc(O)cc1)C(=O)NC[C@H]1O[C@H](C(=O)N[C@H](C(=O)N[C@@H](Cc2ccc(O)cc2)C(=O)N[C@@H](CC(C)C)C(=O)N[C@@H](CCCCN)C(=O)O)[C@@H](C)O)[C@@H](OCc2ccccc2)[C@@H]1OCc1ccccc1 [SEQ ID NO: 3, Leu-Met-Tyr-Saa2-Thr-Tyr-Leu-Lys]
Percent Cytotoxicity ([1]; human, 1 nM): 16.8 ± 1.4%
Percent Cytotoxicity ([1]; human, 10 nM): 18.0 ± 1.8%
Percent Cytotoxicity ([1]; human, 100 nM): 12.5 ± 0.0%
Percent Cytotoxicity ([1]; human, 1 μM): 10.8 ± 0.6%
Percent Cytotoxicity ([7]; 1 nM): 12.3 ± 0.4%
Percent Cytotoxicity ([7]; 10 nM): 10.7 ± 0.1%
Percent Cytotoxicity ([7]; 100 nM): 9.5 ± 1.0%
Percent Cytotoxicity ([7]; 1 μM): 6.9 ± 0.0%
Percent Cytotoxicity ([3]; 1 nM): 12.9 ± 1.3%
Percent Cytotoxicity ([3]; 10 nM): 17.7 ± 0.5%
Percent Cytotoxicity ([3]; 100 nM): 14.9 ± 1.1%
Percent Cytotoxicity ([3]; 1 μM): 9.5 ± 0.1%
Percent Cytotoxicity ([5]; human, 1 nM): 21.8 ± 2.1%
Percent Cytotoxicity ([5]; human, 10 nM): 24.0 ± 2.7%
Percent Cytotoxicity ([5]; human, 100 nM): 17.9 ± 1.8%
Percent Cytotoxicity ([5]; human, 1 μM): 13.9 ± 0.4%
Percent Cytotoxicity ([6]; 1 nM): 12.6 ± 2.8%
Percent Cytotoxicity ([6]; 10 nM): 15.4 ± 1.3%
Percent Cytotoxicity ([6]; 100 nM): 13.9 ± 0.5%
Percent Cytotoxicity ([6]; 1 μM): 10.8 ± 0.5%

CSCC[C@H](NC(=O)[C@@H](N)CC(C)C)C(=O)N[C@@H](Cc1ccc(O)cc1)C(=O)NCc1ccc(C(=O)N[C@@H](Cc2ccc(O)cc2)C(=O)N[C@@H](CC(C)C)C(=O)N[C@@H](CCCCN)C(=O)O)o1 [SEQ ID NO: 10, Leu-Met-Tyr-Saa1-Tyr-Leu-Lys] (H-LMY[2Furoyl(5-aminomethyl)]YLK-OH)
Percent Cytotoxicity ([1]; human, 1 nM): 37.5 ± 3.8%
Percent Cytotoxicity ([1]; human, 10 nM): 32.0 ± 2.9%
Percent Cytotoxicity ([1]; human, 100 nM): 31.0 ± 2.7%
Percent Cytotoxicity ([1]; human, 1 μM): 28.4 ± 2.2%
Percent Cytotoxicity ([2]; 1 nM): 30.5 ± 3.2%
Percent Cytotoxicity ([2]; 10 nM): 28.0 ± 2.2%
Percent Cytotoxicity ([2]; 100 nM): 25.6 ± 2.2%
Percent Cytotoxicity ([2]; 1 μM): 21.8 ± 2.8%
Percent Cytotoxicity ([3]; 1 nM): 32.0 ± 2.5%
Percent Cytotoxicity ([3]; 10 nM): 31.9 ± 2.9%
Percent Cytotoxicity ([3]; 100 nM): 29.6 ± 0.7%
Percent Cytotoxicity ([3]; 1 μM): 26.0 ± 1.8%
Percent Cytotoxicity ([4]; peptide 1 nM): 15.2 ± 1.0%
Percent Cytotoxicity ([4]; peptide 10 nM): 12.9 ± 0.5%
Percent Cytotoxicity ([4]; peptide 100 nM): 9.4 ± 0.2%
Percent Cytotoxicity ([5]; human, 1 nM): 14.9 ± 1.9%
Percent Cytotoxicity ([5]; human, 10 nM): 12.0 ± 1.7%
Percent Cytotoxicity ([5]; human, 100 nM): 9.0 ± 0.6%
Percent Cytotoxicity ([6]; 1 nM): 35.4 ± 2.9%
Percent Cytotoxicity ([6]; 10 nM): 32.0 ± 2.1%
Percent Cytotoxicity ([6]; 100 nM): 31.8 ± 3.1%
Percent Cytotoxicity ([6]; 1 μM): 28.9 ± 2.1%

CSCC[C@H](N)C(=O)NCC1CCC(C(=O)N[C@@H](Cc2ccc(O)cc2)C(=O)N[C@@H](CC(C)C)C(=O)O)O1 (stereo partly shown) [SEQ ID NO: 16, Met-Saa3-Tyr-Leu]
Percent Cytotoxicity ([1]; human, 1 nM): 24.0 ± 2.1%
Percent Cytotoxicity ([1]; human, 10 nM): 22.9 ± 2.1%
Percent Cytotoxicity ([1]; human, 100 nM): 19.0 ± 1.0%
Percent Cytotoxicity ([1]; human, 1 μM): 16.8 ± 1.8%
Percent Cytotoxicity ([7]; 1 nM): 11.0 ± 1.1%
Percent Cytotoxicity ([7]; 10 nM): 12.8 ± 0.7%
Percent Cytotoxicity ([7]; 100 nM): 11.4 ± 0.7%
Percent Cytotoxicity ([7]; 1 μM): 9.8 ± 0.7%
Percent Cytotoxicity ([3]; 1 nM): 9.3 ± 0.3%
Percent Cytotoxicity ([3]; 10 nM): 9.7 ± 0.4%
Percent Cytotoxicity ([3]; 100 nM): 3.2 ± 0.1%
Percent Cytotoxicity ([4]; peptide 1 nM): 9.3 ± 0.6%
Percent Cytotoxicity ([4]; peptide 10 nM): 7.9 ± 0.1%
Percent Cytotoxicity ([6]; 1 nM): 16.5 ± 1.6%
Percent Cytotoxicity ([6]; 10 nM): 19.2 ± 1.6%
Percent Cytotoxicity ([6]; 100 nM): 12.6 ± 0.5%
Percent Cytotoxicity ([6]; 1 μM): 10.9 ± 1.1%

CSCC[C@H](NC(=O)[C@@H](N)CC(C)C)C(=O)NCC1CCC(C(=O)N[C@H](C(=O)N[C@@H](Cc2ccc(O)cc2)C(=O)N[C@@H](CC(C)C)C(=O)N[C@@H](CCCCN)C(=O)O)[C@@H](C)O)O1 (stereo partly drawn) [SEQ ID NO: 8, Leu-Met-Saa3-Thr-Tyr-Leu-Lys] (H-LM[X1]TYLK-OH)
Percent Cytotoxicity ([1]; PA1 cells, peptide 1 nM, NA = Not Active): 12.7 ± 1.9%
Percent Cytotoxicity ([1]; PA1 cells, peptide 10 nM, NA = Not Active): 18.0 ± 1.0%
Percent Cytotoxicity ([1]; PA1 cells, peptide 100 nM, NA = Not Active): 14.8 ± 1.9%
Percent Cytotoxicity ([1]; PA1 cells, peptide 1 μM, NA = Not Active): 9.6 ± 1.0%
Percent Cytotoxicity ([4]; peptide 1 nM): 15.3 ± 1.6%
Percent Cytotoxicity ([4]; peptide 10 nM): 12.7 ± 1.6%
Percent Cytotoxicity ([4]; peptide 100 nM): 10.8 ± 2.9%
Percent Cytotoxicity ([4]; peptide 1 μM): 7.9 ± 0.1%
Percent Cytotoxicity ([5]; MiaPaCa.2 cells, peptide 1 nM, NA = Not Active): 22.9 ± 2.2%
Percent Cytotoxicity ([5]; MiaPaCa.2 cells, peptide 10 nM, NA = Not Active): 25.5 ± 2.9%
Percent Cytotoxicity ([5]; MiaPaCa.2 cells, peptide 100 nM, NA = Not Active): 22.9 ± 2.6%
Percent Cytotoxicity ([5]; MiaPaCa.2 cells, peptide 1 μM, NA = Not Active): 19.0 ± 0.6%

CSCC[C@H](NC(=O)[C@@H](N)CC(C)C)C(=O)N[C@@H](Cc1ccc(O)cc1)C(=O)NC[C@H]1CC[C@@H](C(=O)N[C@@H](Cc2ccc(O)cc2)C(=O)N[C@@H](CC(C)C)C(=O)N[C@@H](CCCCN)C(=O)O)O1 [SEQ ID NO: 13, Leu-Met-Tyr-Saa4-Tyr-Leu-Lys] (H-LMY[X2]YLK-OH)
Percent Cytotoxicity ([1]; human, 1 nM): 44.0 ± 3.9%
Percent Cytotoxicity ([1]; human, 10 nM): 41.0 ± 4.2%
Percent Cytotoxicity ([1]; human, 100 nM): 38.0 ± 3.9%
Percent Cytotoxicity ([1]; human, 1 μM): 35.5 ± 2.4%
Percent Cytotoxicity ([2]; 1 nM): 28.5 ± 2.0%
Percent Cytotoxicity ([2]; 10 nM): 26.0 ± 2.9%
Percent Cytotoxicity ([2]; 100 nM): 22.8 ± 2.1%
Percent Cytotoxicity ([2]; 1 μM): 20.8 ± 1.8%
Percent Cytotoxicity ([3]; 1 nM): 30.0 ± 2.8%
Percent Cytotoxicity ([3]; 10 nM): 27.9 ± 2.1%
Percent Cytotoxicity ([3]; 100 nM): 26.9 ± 2.1%
Percent Cytotoxicity ([3]; 1 μM): 21.4 ± 2.1%
Percent Cytotoxicity ([4]; peptide 1 nM): 23.0 ± 1.6%
Percent Cytotoxicity ([4]; peptide 10 nM): 21.0 ± 2.6%
Percent Cytotoxicity ([4]; peptide 100 nM): 18.0 ± 1.6%
Percent Cytotoxicity ([4]; peptide 1 μM): 12.1 ± 1.3%
Percent Cytotoxicity ([5]; human, 1 nM): 17.5 ± 1.9%
Percent Cytotoxicity ([5]; human, 10 nM): 14.0 ± 0.6%
Percent Cytotoxicity ([5]; human, 100 nM): 8.0 ± 0.6%
Percent Cytotoxicity ([6]; 1 nM): 23.0 ± 2.1%
Percent Cytotoxicity ([6]; 10 nM): 21.8 ± 1.8%
Percent Cytotoxicity ([6]; 100 nM): 17.9 ± 1.9%
Percent Cytotoxicity ([6]; 1 μM): 16.4 ± 0.6%

CSCC[C@H](N)C(=O)NCc1ccc(C(=O)N[C@@H](Cc2ccc(O)cc2)C(=O)N[C@@H](CC(C)C)C(=O)O)o1 [SEQ ID NO: 14, Met-Saa1-Tyr-Leu]
Percent Cytotoxicity ([2]; 1 nM): 28.9 ± 2.2%
Percent Cytotoxicity ([2]; 10 nM): 26.9 ± 2.9%
Percent Cytotoxicity ([2]; 100 nM): 21.8 ± 1.0%
Percent Cytotoxicity ([2]; 1 μM): 15.0 ± 0.5%
Percent Cytotoxicity ([3]; 1 nM): 14.5 ± 0.4%
Percent Cytotoxicity ([3]; 10 nM): 12.9 ± 0.5%
Percent Cytotoxicity ([4]; peptide 1 nM): 12.7 ± 0.4%
Percent Cytotoxicity ([4]; peptide 10 nM): 13.0 ± 0.6%
Percent Cytotoxicity ([4]; peptide 100 nM): 6.0 ± 0.0%
Percent Cytotoxicity ([5]; human, 1 nM): 17.0 ± 1.7%
Percent Cytotoxicity ([5]; human, 10 nM): 13.9 ± 1.1%
Percent Cytotoxicity ([5]; human, 100 nM): 7.0 ± 0.3%
Percent Cytotoxicity ([6]; 1 nM): 11.0 ± 1.9%
Percent Cytotoxicity ([6]; 10 nM): 10.6 ± 1.1%
Percent Cytotoxicity ([6]; 100 nM): 6.0 ± 0.8%
